Experimental data from patent US4980362A, “4-substituted-2-alkoxytetrahydrofuran derivatives” (J. Uriach & CIA. S.A., priority 1990, dated 1990).

What was measured:
[1] = system: hypotension induced by PAF; assay: Test 2: Inhibition of the hypotensive effect induced by PAF in normotense rats; assay type: in vivo, rat (male Sprage Dawley); conditions: anesthetized male rats, compound 3 min before PAF 0.5 mcg/Kg i.v., text calls it IC50; for ED50: Rattus norvegicus, iv, read-out: CI50 (the source's name); for CI50: i.v.
Method: Test 2 - Inhibition of the hypotensive effect induced by PAF in normotense rats.
Male Sprage Dawley rats, of 180-220 g of weight, anesthetized with sodium pentobarbital (50 mg/Kg, i.p. 1 mL/100 g) have been used. In order to measure the average arterial pressure, a polyethylene catheter is introduced into the carotid artery. The arterial pressure is recorded with the help of a transducer connected with a R611 Beckman polygraph. The tested compounds are administered through the femoral vein 3 min before the injection of PAF (0.5 mcg/Kg, i.v.).

PAF-induced mortality = assay: Test 3: PAF-induced mortality in mice (p.o.); assay type: in vivo, mouse (Swiss); conditions: 1 hour before C18-PAF 100 mcg/kg plus propanolol 1 mg/kg i.v., inhibition of mortality, observed 2 hours after PAF; for ED50: Mus musculus, po, 2 h, read-out: ID50 (the source's name)
Method: Finally, certain compounds of the present invention show an improved oral activity with regard to other chemically related PAF-antagonists reported in the literature, such as CV-6209, (disclosed in EP No. 157609) as shown by test 3:
Test 3 - PAF-induced mortality in mice (p.o.)
The experiment is carried out according to the method of Young et al. (Prostaglandins, 1985, 30, 545-551). Groups of 10 Swiss mice weighing 22-26 g are used. 100 mcg/kg of C18 -PAF plus 1 mg/kg of propanolol are intravenously administered in a lateral tail vein 1 hour after the oral administration of test compounds (0.1 mL/10 g). Every animal is observed 2 hours after the PAF injection. Percent inhibition of mortality due to treatments in comparison with control group are recorded. Results are given as ID50 values (mg/kg) in table 3.

[2] = system: platelet aggregation induced by PAF; assay: Test 1: Inhibition of platelet aggregation induced by PAF; assay type: cell-based, rabbit (male New Zealand albino); conditions: rabbit platelet rich plasma, PAF (C18) 16 nM final, Born nephelometric technique
Method: Test 1: Inhibition of platelet aggregation induced by PAF.
The blood is obtained by cardiac puncture of male New Zealand albino rabbits (between 2 and 2.5 Kg of weight) and coagulation is prevented by adding 1 part of 3.16% sodium citrate dihydrate in 9 parts of blood. The platelet rich plasma (PRP) is prepared by blood centrifugation at 250×g for 10 min. at 4° C. and it is diluted with platelet poor plasma (PPP) by additional centrifugation at 3000×g for 10 min. The amount of platelets is adjusted to […]. The platelet aggregation induced by PAF (C18; prepared in our laboratory) (16 nM, final) is determined by the Born nephelometric technique (J. Physiol., 1962, 162, 67) using a aggregometer Chrono-log 500. The activities of the inhibitors are expressed as IC50, that is to say the concentration of the drug needed to inhibit the platelet aggregation by 50%.

[3] = Oryctolagus cuniculus, Platelet

Row | Compound | ED50 [1] | ED50 (PAF-induced mortality) | IC50 [2, 3] | CI50 [1] | ID50 (PAF-induced mortality; 120 min) | IC50 [2]
1 | CCCCCCCCCCCCCCCCCCOC1CC(COC(=O)N(Cc2cccc[n+]2C)C(C)=O)CO1 (racemic) [Compound 3, (±)-cis,trans-1-methyl-2-[N-acetyl-N-[[[(2-octadecyloxytetrahydrofuran-4-yl)methoxy]carbonyl]amino]methyl]pyridinium iodide] | 0.08 mg/kg | > 100 mg/kg | 45 nM |  |  | 
2 | CCCCCCCCCCCCCCCCCCOC1CC(COC(=O)N(Cc2cccc[n+]2CC)C(C)=O)CO1 (racemic) [Compound 4, (±)-cis,trans-1-ethyl-2-[N-acetyl-N-[[[(2-octadecyloxytetrahydrofuran-4-yl)methoxy]carbonyl]amino]methyl]pyridinium iodide] |  | 14 mg/kg | 16 nM | 0.053 mg/kg |  | 
3 | CCCCCCCCCCCCCCCCCCOC1CC(COC(=O)N(Cc2cccc[n+]2CC)C(C)=O)CO1 (racemic) [Compound 5, (±)-cis,trans-1-ethyl-2-[N-acetyl-N-[[[(2-octadecyloxytetrahydrofuran-4-yl)methoxy[carbonyl[amino]methyl]pyridinium chloride] |  |  |  | 0.024 mg/kg | 19 mg/kg | 12 nM
4 | CCCCCCCCCCCCCCCCOC1CC(COC(=O)N(Cc2cccc[n+]2CC)C(C)=O)CO1 (racemic) [Compound 8, (±)-cis,trans-1-ethyl-2-[N-acetyl-N-[[[(2-hexadecyloxytetrahydrofuran-4-yl)methoxy]carbonyl]amino]methyl]pyridinium iodide] | 0.01 mg/kg | 80 mg/kg | 12 nM |  |  | 
5 | CCOC1CC(COC(=O)N(Cc2cccc[n+]2CC)C(C)=O)CO1 (racemic) [Compound 11, (±)-cis,trans-1-ethyl-2-[N-acetyl-N-[[[(2-ethoxytetrahydrofuran-4-yl)methoxy]carbonyl]amino]methyl]pyridinium iodide] | 2.3 mg/kg |  | 2900 nM |  |  | 
6 | CC[n+]1ccccc1CN(C(C)=O)C(=O)OCC1COC(OCCC(C)C)C1 (racemic) [Compound 14, (±)-cis,trans-1-ethyl-2-[N-acetyl-N-[[[(2-(3-methylbutoxy)tetrahydrofuran-4-yl)methoxy]carbonyl]amino]methyl]pyridinium iodide] | 0.21 mg/kg |  | 700 nM |  |  | 
7 | CC[n+]1ccccc1CN(C(C)=O)C(=O)OCC1COC(OCCCc2ccccc2)C1 (racemic) [Compound 17, (±)-cis,trans-1-ethyl-2-[N-acetyl-N-[[[(2-(3-phenylpropoxy)tetrahydrofuran-4-yl)methoxy]carbonyl]amino]methyl]pyridinium iodide] | 0.12 mg/kg |  | 190 nM |  |  | 
8 | CCCCCCCCCCCCCCCCCCNC(=O)OCC(COC(=O)N(Cc1cccc[n+]1CC)C(C)=O)OC (stereo not shown) [CV-6209, reference compound] |  | 70 mg/kg |  |  |  | 
